In US20250171404A1, “PCNA INHIBITORS AND USES THEREOF” (CITY OF HOPE, priority 2022, published 2025):

Tests used:
[1] = tested on: 7SM0032; experiment: Cell cycle analysis (PI, flow cytometry), nonmalignant cells; assay type: cell-based, human; settings: 500 nM; nonmalignant 7SM0032 cells
Method: FIGS. 3A-3D. Therapeutic properties of AOH1996. FIG. 3A: Normal cells (7SM0032) or cancer cells (SH-SY5Y and SK-N-BE(2)c) cells were fixed, stained with PI, and analyzed by flow cytometry following treatment with 500 nM AOH1996 for the indicated time. FIG. 3B: SK-N-DZ neuroblastoma cells and nonmalignant 7SM0032 stem cells were incubated with 500 nM AOH1996 for 24 h. Then, after being fixed on slides, cell apoptosis were analyzed by a TUNEL assay. Left: TMR fluorophore attached to the free ends of DNA indicates cells undergoing apoptosis. DAPI stained nuclei also shown. Right: Average abundance ±S.D. of apoptotic 7SM0032 (black histogram) and SK-N-DZ (grey histogram) cells relative to the total number of cells are shown in 5 randomly selected fields. FIG. 3C: Human SK-N-DZ neuroblastoma cells were treated with or without the indicated concentrations of cisplatin in the absence or presence of 500 nM of AOH1996 for 18 hours. […] The relative number of colonies determined in triplicates for each treatment condition were averaged and graphed ±SDs (*, P<0.01). […] Cell growth was measured as the percentage of cell confluence by imaging every 6 h for a total of 48 h.
Cell Cycle Analysis. […] PI fluorescence intensity of the cells was measured by flow cytometry and the data was analyzed using the FlowJo program.

[2] = Oral pharmacokinetic study in dogs; assay type: in vivo, beagle dogs
Method: FIGS. 4A-4H. Pharmacokinetics and anti-tumor growth activity of AOH1996 in vivo. FIG. 4A: After oral administration, the plasma concentrations of AOH1996 from three male and three female ES1^e/SCID mice at the indicated time points were averaged and graphed ±S.D. The inset contains PK parameters determined by a standard noncompartmental method. FIG. 4B: A similar PK study of AOH1996 was performed in dogs. FIGS. 4C-4E: Mice bearing the xenograft tumors of neuroblastoma (FIG. 4C: SK-N-BE(2)c), breast cancer (FIG. 4D: MDA-MB-468), and small-cell lung cancer (FIG. 4E: H82) were given vehicle only (black) or 40 mg/kg of AOH1996 (grey) twice daily immediately after the first measurement. Tumor sizes were measured by a dial caliper each week. […] FIG. 4F: Animal body weight was monitored throughout the studies as an indicator of toxicity. […] FIG. 4G: The levels of phosphor-Chk1 (pChk1) and γH2A.X in SK-N-BE(2)c derived tumor samples were analyzed by IHC. […] The p values determined by the Log-rank (Mantel-Cox) test between combination treatment and each of the control groups are p=0.0003 (Combination vs. NoRx), p=0.005 (Combination vs. AOH1996 alone), and p=0.024 (Combination vs. CPT-11 alone).
Pharmacokinetic (PK) study in animals. […] Following removal of blood cells, plasma concentration of AOH1996 was determined by LC-MS/MS as described (Gu et al., 2018). […]

SMILES: COc1cccc(Oc2ccccc2NC(=O)CNC(=O)c2cccc3ccccc23)c1 [AOH1996, N-(2-((2-(3-methoxyphenoxy)phenyl)amino)-2-oxoethyl)-1-naphthamide]
- change in cell-cycle profile [1]: does not significantly change the cell-cycle profiles
- PK parameters in dogs [2]: Comparable PK parameters
